Values after ≈ are worked out from the molar mass of the structure shown. Where two headings read alike, the source gives them in different places.
Assays:
[1] = Stability of Form 2 of a gentisate form of Compound 1 under storage conditions (reverse-phase HPLC impurities, XRPD); type: physicochemical; details: for Total impurities present: reverse-phase HPLC
Experimental: To measure stability of the Form 2 of a gentisate form of Compound 1 under storage conditions, samples of Form 2 of a gentisate form of Compound 1 were placed in double low-density polyethylene bags with desiccant between the bags and each was placed into a high-density polyethylene drum. One drum was stored at a temperature of 5 °C and samples of the material were taken at 1 month and 3 months, and the samples were analyzed for the presence of impurities. The other drum was stored at a temperature of 25 °C and at 60% relative humidity (RH), samples of the materials were taken at 1 month and 3 months, and the samples were analyzed for the presence of impurities. The amount of the Form 2 of a gentisate form of Compound 1, and the amount ofany impurities, in each sample was measured by reverse-phase high performance liquid chromatography using the test conditions set and solvent gradients forth in Table 13 and Table 14. The samples were tested to determine the amount remaining of Form 2 at each time point, and the measurements were conducted by x-ray powder diffraction (XRPD) according to USP <941>.

[2] = Solubility of gentisate Form 2 of Compound 1 in water, SGF, FaSSIF and FeSSIF after 4 hours at 37 °C (HPLC); type: physicochemical
Experimental: The solubility of a polymorphic form of a gentisate form of Compound 1 was measured in water, simulated gastric fluid (SGF), fasted-state simulated intestinal fluid (FaSSIF), and fed-state simulated intestinal fluid (FeSSIF) after 4 hours and at 37 °C as follows.
The SGF media was prepared by weighing 49.5 mg of NaCl and 25.4 mg of Triton X-100 into a 100-mL volumetric flask. A volume of purified water was added to the flask and the resulting mixture was sonicated until all solids were dissolved. About 1.632 mL of HCl solution (1 M) were then added and sufficient purified water to the target volume and to adjust the pH to 1.8. The solution was then diluted to volume with purified water, mixed well and the pH value was measured to be 1.83.
A FaSSIF buffer was prepared by weighing 340.8 mg of NaH2PO4, 43.0 mg of NaOH and 619.6 mg of NaCl into a 100-mL volumetric flask. A volume of purified water was added to the flask and the resulting mixture was sonicated until the solids had dissolved. A second volume of purified water was added to the flask to adjust the pH to 6.5. The solution was diluted with another volume of purified water, mixed, and the pH value was measured to be 6.54. The FaSSIF media was prepared by weighing 110.4 mg of SIF powder into a 50-mL volumetric flask to which a volume of FaSSIF dissolving buffer was added. The resulting mixture was sonicated until the SIF powder dissolved. Then mixture was then diluted to volume with FaSSIF dissolving buffer and mixed well. The FaSSIF solution was equilibrated for 2 hours at room temperature before it was used.
A FeSSIF dissolving buffer was prepared by weighing 0.82 mL of glacial acetic acid, 404.9 mg of NaOH and 1188.2 mg of NaCl into a 100-mL volumetric flask. A volume of purified water was added to the flask and the mixture was sonicated until the solids were dissolved. A second volume of purified water was added to the target volume to adjust the pH to 5.0. The solution was diluted with a volume of purified water, mixed well the pH value was measured to be 4.96. FeSSIF media was prepared by weighing 559.6 mg of SIF powder into a 50-mL volumetric flask. A volume of FeSSIF dissolving buffer was added to the flask and the resulting mixture was sonicated the SIF powder was dissolved. A second volume FeSSIF dissolving buffer was added and the resulting mixture was mixed well. The FeSSIF solution was equilibrated for 2 hours to room temperature before use.
An Agilent 1260 high performance liquid chromatography (HPLC) instrument equipped with a DAD detector, a Waters H-Class UPLC with PDA detector was used in the solubility measurements using the conditions set forth in Table 6.
About 10 mg of a gentisate Form 2 of Compound 1 (calculated by weight of the free base of Compound 1) was placed into a 3 mL glass vial and 1 mL of the respective media (water, SGF, FaSSIF and FeSSIF) was added into each glass vial. A cap was placed on each of the vials and they were rolled at 37 °C (25 rpm) for 4 hours. The suspension was then extracted into a centrifugation tube prior to centrifugation (10000 rpm, 37 °C, 5 min) and filtration (0.22 μm PTFE membrane). The resulting supernatant was analyzed by HPLC and the pH was determined. The solubility of the polymorphic form of a gentisate Form 2 of Compound 1 measured was as set forth above was as set forth in Table 7.

[3] = storage 5 °C, initial (time = zero)
[4] = storage 25 °C and 60% RH, 1 month
[5] = storage 25 °C and 60% RH, 3 months
[6] = storage 25 °C and 60% RH, initial (time = zero)

XRPD ([1]; storage 5 °C, 1 month): Crystalline
Total impurities present ([1]; storage 5 °C, 1 month): 4.5 % area
XRPD ([1]; storage 5 °C, 3 months): Crystalline
Total impurities present ([1]; storage 5 °C, 3 months): 4.2 % area
XRPD [1, 3]: Crystalline
Total impurities present [1, 3]: 4.4 % area
XRPD [1, 4]: Crystalline
Total impurities present [1, 4]: 4.5 % area
XRPD [1, 5]: Crystalline
Total impurities present [1, 5]: 4.3 % area
XRPD [1, 6]: Crystalline
Total impurities present [1, 6]: 4.4 % area
Stability ([1]; stored at 5 °C): stable up to 3 months
Stability ([1]; stored at 25 °C and at 60% RH): stable up to 3 months
pH (of supernatant) ([2]; fasted-state simulated intestinal fluid (FaSSIF)): 2.5
solubility at 4 h ([2]; fasted-state simulated intestinal fluid (FaSSIF), pH 2.5, read-out: Solubility (calculated as the amount of free base of Compound 1)): > 10.2 mg/mL
pH (of supernatant) ([2]; fed-state simulated intestinal fluid (FeSSIF)): 4.4
solubility at 4 h ([2]; fed-state simulated intestinal fluid (FeSSIF), pH 4.4, read-out: Solubility (calculated as the amount of free base of Compound 1)): > 9.42 mg/mL
pH (of supernatant) ([2]; simulated gastric fluid (SGF)): 1.7
solubility at 4 h ([2]; simulated gastric fluid (SGF), pH 1.7, read-out: Solubility (calculated as the amount of free base of Compound 1)): > 9.71 mg/mL
pH (of supernatant) ([2]; water): 1.7
solubility at 4 h ([2]; water, pH 1.7, read-out: Solubility (calculated as the amount of free base of Compound 1)): 26.2 mg/mL (≈ 43.2 mM)
Compound: O=P(O)(O)[C@@](CO)(COCc1nn[nH]n1)OC[C@H]1O[C@@H](n2ncc3c(NC4CCCC4)nc(Cl)nc32)[C@H](O)[C@@H]1O [Form 2 of a gentisate form of Compound 1]

Reference: patent US20260335348A1, “PHARMACEUTICAL FORMS OF A CD73 INHIBITOR” (ORIC Pharmaceuticals, Inc., priority 2022, published 2026)
